Test results taken from PubChem BioAssay (NCI).
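Tested at 5 concentrations; 48 h exposure; 96-well plates; endpoints linearly interpolated, else capped at highest concentration. At the TGI there is no net growth.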

Tests used:
Experiment in all cases: NCI anticancer screen, dose series, 48 h
[1] = system: A549 NSCLC
[2] = system: MDA-N
[3] = system: NCI-H226 lung
[4] = system: EKVX NSCLC
[5] = system: MALME-3M melanoma
[6] = system: SK-MEL-5 melanoma
[7] = system: RPMI-8226 leukemia
[8] = system: SF-295 CNS
[9] = system: CCRF-CEM leukemia
[10] = system: ACHN renal
[11] = system: HCT-15 colon
[12] = system: HT29 colon
[13] = system: SK-MEL-28 melanoma
[14] = system: IGROV1 ovarian
[15] = system: M14 melanoma
[16] = system: SN12C renal
[17] = system: T-47D breast
[18] = system: NCI-H23 lung
[19] = system: KM12 colon
[20] = system: RXF 393 renal
[21] = system: SK-MEL-2 melanoma
[22] = system: SW-620 colon
[23] = system: OVCAR-5 ovarian
[24] = system: TK-10 renal
[25] = system: NCI-H522 lung
[26] = system: U251 CNS
[27] = system: SR leukemia
[28] = system: SNB-75 CNS
[29] = system: A498 renal
[30] = system: NCI/ADR-RES ovarian
[31] = system: HCT-116 colon
[32] = system: LOX IMVI melanoma
[33] = system: HS 578T breast
[34] = system: UACC-62 melanoma
[35] = system: PC-3 prostate
[36] = system: UO-31 renal
[37] = system: NCI-H460 lung
[38] = system: OVCAR-8 ovarian
[39] = system: HOP-62 NSCLC
[40] = system: 786-0 renal
[41] = system: BT-549 breast
[42] = system: SF-539 CNS
[43] = system: DU-145 prostate
[44] = system: MDA-MB-231 breast
[45] = system: MOLT-4 leukemia
[46] = system: COLO 205 colon
[47] = system: MCF7 breast
[48] = system: MDA-MB-435
[49] = system: UACC-257 melanoma
[50] = system: SNB-19 CNS
[51] = system: CAKI-1 renal
[52] = system: HL-60(TB) leukemia
[53] = system: OVCAR-4 ovarian
[54] = system: SF-268 CNS
[55] = system: K-562 leukemia
[56] = system: OVCAR-3 ovarian
[57] = system: SK-OV-3 ovarian
[58] = system: HCC-2998 colon
[59] = system: HOP-92 NSCLC

SMILES: C=CCOC1=C(OC(C)=O)C(=O)OC1C1COC(C)(C)O1 (stereo not drawn)
- TGI [1]: > 100 µM
- TGI [2]: > 100 µM
- TGI [3]: > 100 µM
- TGI [4]: > 68 µM
- TGI [5]: 57.1 µM
- TGI [6]: > 100 µM
- TGI [7]: > 100 µM
- TGI [8]: > 100 µM
- TGI [9]: > 60.4 µM
- TGI [10]: 46.6 µM
- TGI [11]: 46.2 µM
- TGI [12]: > 83.2 µM
- TGI [13]: 31.9 µM
- TGI [14]: > 100 µM
- TGI [15]: > 80.7 µM
- TGI [16]: > 68.7 µM
- TGI [17]: > 63.7 µM
- TGI [18]: > 83.2 µM
- TGI [19]: > 65.6 µM
- TGI [20]: > 56.5 µM
- TGI [21]: 98.9 µM
- TGI [22]: > 59.7 µM
- TGI [23]: > 100 µM
- TGI [24]: > 100 µM
- TGI [25]: 34.6 µM
- TGI [26]: > 100 µM
- TGI [27]: 9.02 µM
- TGI [28]: > 71.3 µM
- TGI [29]: > 100 µM
- TGI [30]: > 100 µM
- TGI [31]: > 65.2 µM
- TGI [32]: 33.2 µM
- TGI [33]: > 100 µM
- TGI [34]: > 100 µM
- TGI [35]: > 100 µM
- TGI [36]: > 79.4 µM
- TGI [37]: > 100 µM
- TGI [38]: > 84.6 µM
- TGI [39]: > 100 µM
- TGI [40]: > 60.7 µM
- TGI [41]: > 88.2 µM
- TGI [42]: > 74.8 µM
- TGI [43]: > 100 µM
- TGI [44]: > 100 µM
- TGI [45]: 45.7 µM
- TGI [46]: > 58.9 µM
- TGI [47]: > 66.4 µM
- TGI [48]: > 74 µM
- TGI [49]: > 100 µM
- TGI [50]: > 100 µM
- TGI [51]: > 57.1 µM
- TGI [52]: > 60.8 µM
- TGI [53]: 32.1 µM
- TGI [54]: > 100 µM
- TGI [55]: > 56.5 µM
- TGI [56]: 31.4 µM
- TGI [57]: > 100 µM
- TGI [58]: > 100 µM

SMILES: C#CCCOC(=O)CC1=C(C)/C(=C/c2ccc(S(C)=O)cc2)c2ccc(F)cc21 (stereo not drawn)
- TGI [2]: 21 µM
- TGI [3]: 43.3 µM
- TGI [4]: 71.9 µM
- TGI [6]: 24.7 µM
- TGI [7]: 32.4 µM
- TGI [8]: 29.4 µM
- TGI [9]: 35 µM
- TGI [10]: 44.3 µM
- TGI [11]: 27.1 µM
- TGI [14]: 83.1 µM
- TGI [15]: 33.1 µM
- TGI [16]: 35.6 µM
- TGI [17]: 53.7 µM
- TGI [18]: 68.9 µM
- TGI [19]: 27.3 µM
- TGI [20]: 84.7 µM
- TGI [21]: 30.5 µM
- TGI [22]: 29.9 µM
- TGI [23]: > 100 µM
- TGI [24]: 83.3 µM
- TGI [25]: 47 µM
- TGI [26]: 29.4 µM
- TGI [27]: 22.1 µM
- TGI [28]: 44.8 µM
- TGI [29]: 30.4 µM
- TGI [30]: 36 µM
- TGI [31]: 32.3 µM
- TGI [32]: 33.1 µM
- TGI [33]: 40.4 µM
- TGI [34]: 27.4 µM
- TGI [35]: 28.7 µM
- TGI [36]: 33.6 µM
- TGI [37]: 35.4 µM
- TGI [38]: 42.8 µM
- TGI [39]: > 100 µM
- TGI [40]: 44.7 µM
- TGI [41]: 30.5 µM
- TGI [42]: 30.5 µM
- TGI [43]: 31.4 µM
- TGI [44]: 26 µM
- TGI [45]: 44.1 µM
- TGI [46]: 32.9 µM
- TGI [59]: 26.1 µM
- TGI [47]: 37.8 µM
- TGI [48]: 17.4 µM
- TGI [49]: 29.7 µM
- TGI [50]: 29.6 µM
- TGI [51]: 65.4 µM
- TGI [52]: 20.7 µM
- TGI [53]: 43 µM
- TGI [54]: 50 µM
- TGI [55]: 35.3 µM
- TGI [56]: 33.8 µM
- TGI [57]: 84.3 µM
- TGI [58]: 22.3 µM
